From patent US12209080B2, “Polymorphic forms of kinase inhibitor compound, pharmaceutical composition containing same, preparation method therefor and use thereof” (EQUINOX SCIENCES, LLC, priority 2016, dated 2025)
In brackets after ≈: the same amount, converted by molar mass. Read-outs that look alike come from different tables or passages of the source. One block for each compound: values may come before it.

How the values were obtained:
[1] = Tissue accumulation experiment in tumor-bearing mice; format: in vivo, BALB/cA nude mice; design: content in Tumor / content in Liver / content in Kidney / content in Heart / content in Lung / content in Muscle / content in Brain: unit not given here; conditions: 40 mg/kg for 21 days (crystalline form 1 twice a day, sunitinib once a day); 4 hours after administration on day 22
Procedure: Human colon cancer H-29 cells were implanted into the armpits of BALB/cA nude mice. Seven days after the implantation of H-29 cells, 8 female mice were administered with the crystalline form 1 (twice a day) at 40 mg/kg or sunitinib at 40 mg/kg (once a day). The drug administration was continuous for 21 days. Plasma, tissue and tumor samples were collected for analysis 4 hours after the administration on the 22nd day morning.

[2] = Thermodynamic stability experiment in solvents at 60° C. (XRD); format: physicochemical; conditions: one day
Procedure: The crystalline form 1, crystalline form 2, crystalline form 3 and crystalline form 7 of the compound of formula I were mixed with acetone, ethyl acetate, methanol, water and tetrahydrofuran respectively, and then kept at 60° C. for one day for the investigation of the thermodynamic stability of each crystalline form. Insoluble solid was recovered by filtration and analyzed by XRD. Analysis conditions: Shimadzu XRD-6000, CuK source (1.54056 A) 40 kV, 30 mA; detection angle: 5-50°, speed: 5°/min.

[3] = Dissolution rate of crystalline forms 1 and 2; format: physicochemical
Source text: (§1) The moisture content, solubility and dissolution rate of the crystalline forms 1 and 2 were detected using the methods described above. The results are shown in Table 21, which indicate that the solubility, dissolution, and moisture content (total pharmaceutical properties) of the crystalline form 1 are higher than that of the crystalline form 2. Moreover, the crystalline forms 1 and 2 have the highest solubility in methanol.

[4] = Dynamic vapor sorption (DVS) / moisture absorption; format: physicochemical
Procedure: (4) Dynamic Water Adsorption (DVS), TA Instruments Q5000 TGA; controlling software: Thermal Advantage; analysis software: Universal Analysis; sample plate: platinum crucible; amount of the sample to be detected: 1-10 mg; protective gas: nitrogen; gas flow fate: 10 mL/min; detection method: equilibration at 25° C., humidity: 0%, isothermal treatment: 90 min, weight change to be detected: from 0% RH to 80% RH;
as §1

[5] = Stability of the crystalline forms (HPLC, XRD, DSC); format: physicochemical; conditions: for HPLC Maximum single impurity %: retention time (min) in brackets; for crystalline form and melting point by XRD and DSC: sealed 80° C. 24 hours, open dish 25° C./60% RH and 40° C./75% RH for 7 days
Procedure: Experimental conditions: the samples were sealed and placed at 80° C. for 24 hours, and then placed in an open dish at 25° C./60% RH (relative humidity) and 40° C./75% RH for 7 days. Detection method: HPLC (only for the starting samples and samples placed at 80° C. for 24 hours), XRD, DSC.
In addition, the long-term stabilities of the crystalline form 1 for 12 months, 24 months, 36 months, and 48 months at 25° C./60% RH were also investigated.

[6] = Pharmacokinetic experiment, oral administration; format: in vivo, Sprague Dawley rats; conditions: rat, 10 mg/kg, suspension in 0.5% CMC
Procedure: Twelve Sprague Dawley rats with weight of 230-250 g were randomly divided into 2 groups, wherein each group consisted of 3 males and 3 females. Crystalline forms 1 and 2 were separately prepared as suspensions in 0.5% carboxymethylcellulose (CMC). The rats were fasted for 12 hours with free access to water and then orally administered at a dose of 10 mg/kg. Blood samples (0.2-0.3 ml) before and after 15, 30, 60, 120, 240, 360, 480, 720, 1440 minutes of the oral administration were collected in heparin anticoagulation tubes, which were then centrifuged to obtain plasma. The plasma was stored at −20° C., followed by analysis using API 4000 MS in conjunction with a HPLC unit. The pharmacokinetic parameters Cmax and AUC were calculated according to the determined plasma concentrations and summarized in Table 22.

[7] = Solubility of crystalline forms 1 and 2 in various media; format: physicochemical
Source text: as §1

[8] = Solubility determination in water by HPLC; format: physicochemical; conditions: suspension in water, 25° C.
Procedure: HPLC detection was performed using the crystalline form 1 as a standard, with its concentration of 204.2 μg*mL^−1 and its content set as 100%, and the detection was performed 7 times. The average peak area was 159.691 mAU*min (retention time was 7.4 min).

[9] = acetone, ethyl acetate, methanol or water, conversion not complete in methanol

SMILES: CCN(CC)CCNC(=O)c1c(C)[nH]c(/C=C2\C(=O)Nc3ccc(F)cc32)c1C [Sunitinib, reference compound]
- content in Brain [1]: 333.9
- content in Heart [1]: 3,881.2
- content in Kidney [1]: 14,852.0
- content in Liver [1]: 14,816.6
- content in Lung [1]: 15,713.5
- content in Muscle [1]: 1,483.2
- content in Plasma [1]: 261.3
- content in Tumor [1]: 27,137.2

SMILES: Cc1[nH]c(/C=C2\C(=O)Nc3ccc(F)cc32)c(C)c1C(=O)N[C@H]1CCN(C(=O)N(C)C)C1 [crystalline form 2, 5-[5-fluoro-2-oxo-1,2-dihydro-indole-(3Z)-ylidenemethyl]-2,4-dimethyl-1H-pyrrole-3-carboxylic acid ((S)-1-dimethylcarbamoyl-pyrrolidin-3-yl)-amide]
- crystalline form recovered (XRD) [2, 9]: converted to crystalline form 2
- crystalline form recovered (XRD) ([2]; tetrahydrofuran (THF)): to crystalline form 3
- Internal dissolution rate [3]: 0.0062 mg/(min · cm^2)
- Moisture absorption ([4]; RH 50%): 0.064%
- Moisture absorption ([4]; RH 80%): 0.112%
- HPLC Purity % ([5]; 0 day (starting sample)): 97.76%
- HPLC Maximum single impurity % ([5]; 0 day (starting sample)): 2.15 (4.73) %
- crystalline form and melting point by XRD and DSC [5]: substantially unchanged
- HPLC Purity % ([5]; sealed, 80° C./24 h): 98.95%
- HPLC Maximum single impurity % ([5]; sealed, 80° C./24 h): 0.96 (4.73) %
- AUC(0-t) ([6]; female, Sprague Dawley, plasma, po, female 1, read-out: AUC(0-t)): 4340 ng·h/mL
- Cmax ([6]; female, Sprague Dawley, plasma, po, female 1, read-out: Cmax): 317 ng/mL
- AUC(0-t) ([6]; oral 10 mg/kg, average value): 3320.9 ng·h/mL
- Cmax ([6]; oral 10 mg/kg, average value): 313.8 ng/mL
- AUC(0-t) ([6]; oral 10 mg/kg, female 2): 3899.2 ng·h/mL
- Cmax ([6]; oral 10 mg/kg, female 2): 451.4 ng/mL
- AUC(0-t) ([6]; oral 10 mg/kg, female 3): 7850.6 ng·h/mL
- Cmax ([6]; oral 10 mg/kg, female 3): 614.6 ng/mL
- AUC(0-t) ([6]; oral 10 mg/kg, male 1): 1557.1 ng·h/mL
- Cmax ([6]; oral 10 mg/kg, male 1): 204.4 ng/mL
- AUC(0-t) ([6]; oral 10 mg/kg, male 2): 925.0 ng·h/mL
- Cmax ([6]; oral 10 mg/kg, male 2): 114.7 ng/mL
- AUC(0-t) ([6]; oral 10 mg/kg, male 3): 1349.3 ng·h/mL
- Cmax ([6]; oral 10 mg/kg, male 3): 180.4 ng/mL
- Solubility ([7]; 1% Tween 80): 20 µg/mL (≈ 45.5 µM)
- Solubility ([7]; 1% sodium lauryl sulfate): 580 µg/mL (≈ 1320 µM)
- Solubility ([7]; 2% sodium lauryl sulfate): 950 µg/mL (≈ 2160 µM)
- Solubility ([7]; PEG 400, organic solvent or mixture, thermodynamic from solid, PEG 400, read-out: Solubility): 2670 µg/mL (≈ 6080 µM)
- Solubility ([7]; acetonitrile): 270 µg/mL (≈ 614 µM)
- Solubility ([7]; aqueous solution with pH of 1.0-7.5): 0.0048 to 0.04 µg/mL
- Solubility ([7]; ethanol, organic solvent or mixture, thermodynamic from solid, ethanol, read-out: Solubility): 1940 µg/mL (≈ 4410 µM)
- Solubility ([7]; glycerin): 120 µg/mL (≈ 273 µM)
- Solubility ([7]; methanol): 3500 µg/mL (≈ 7960 µM)
- concentration (solubility in water) ([8]; 0.5 hours): 0.19 µg/mL
- concentration (solubility in water) ([8]; 4 hours): 0.26 µg/mL

SMILES: Cc1[nH]c(/C=C2\C(=O)Nc3ccc(F)cc32)c(C)c1C(=O)N[C@H]1CCN(C(=O)N(C)C)C1 [crystalline form 3, 5-[5-fluoro-2-oxo-1,2-dihydro-indole-(3Z)-ylidenemethyl]-2,4-dimethyl-1H-pyrrole-3-carboxylic acid ((S)-1-dimethylcarbamoyl-pyrrolidin-3-yl)-amide]
- crystalline form recovered (XRD) [2, 9]: converted to crystalline form 2
- crystalline form recovered (XRD) ([2]; tetrahydrofuran (THF)): to crystalline form 3
- HPLC Purity % ([5]; 0 day (starting sample)): 99.14%
- HPLC Maximum single impurity % ([5]; 0 day (starting sample)): 0.76 (4.73) %
- crystalline form and melting point by XRD and DSC [5]: substantially unchanged
- HPLC Purity % ([5]; sealed, 80° C./24 h): 98.32%
- HPLC Maximum single impurity % ([5]; sealed, 80° C./24 h): 1.58 (4.73) %
- concentration (solubility in water) ([8]; 0.5 hours): 0.58 µg/mL
- concentration (solubility in water) ([8]; 4 hours): 0.77 µg/mL

SMILES: Cc1[nH]c(/C=C2\C(=O)Nc3ccc(F)cc32)c(C)c1C(=O)N[C@H]1CCN(C(=O)N(C)C)C1 [crystalline form 5, 5-[5-fluoro-2-oxo-1,2-dihydro-indole-(3Z)-ylidenemethyl]-2,4-dimethyl-1H-pyrrole-3-carboxylic acid ((S)-1-dimethylcarbamoyl-pyrrolidin-3-yl)-amide]
- HPLC Purity % ([5]; 0 day (starting sample)): 99.86%
- HPLC Maximum single impurity % ([5]; 0 day (starting sample)): 0.05 (8.82) %
- crystalline form and melting point by XRD and DSC [5]: substantially unchanged
- HPLC Purity % ([5]; sealed, 80° C./24 h): 98.80%
- HPLC Maximum single impurity % ([5]; sealed, 80° C./24 h): 1.10 (4.73) %
- concentration (solubility in water) ([8]; 0.5 hours): 1.66 µg/mL
- concentration (solubility in water) ([8]; 4 hours): 0.42 µg/mL

Other lines, results leading:

- HPLC Purity % ([5]; 0 day (starting sample)): 99.09%
- HPLC Maximum single impurity % ([5]; 0 day (starting sample)): 0.80 (4.73) %
- crystalline form and melting point by XRD and DSC [5]: substantially unchanged
- HPLC Purity % ([5]; sealed, 80° C./24 h): 99.12%
- HPLC Maximum single impurity % ([5]; sealed, 80° C./24 h): 0.78 (4.73) %
- concentration (solubility in water) ([8]; 0.5 hours): 0.29 µg/mL
- concentration (solubility in water) ([8]; 4 hours): 0.37 µg/mL
SMILES: Cc1[nH]c(/C=C2\C(=O)Nc3ccc(F)cc32)c(C)c1C(=O)N[C@H]1CCN(C(=O)N(C)C)C1 [crystalline form 6, 5-[5-fluoro-2-oxo-1,2-dihydro-indole-(3Z)-ylidenemethyl]-2,4-dimethyl-1H-pyrrole-3-carboxylic acid ((S)-1-dimethylcarbamoyl-pyrrolidin-3-yl)-amide]

- crystalline form recovered (XRD) [2, 9]: converted to crystalline form 2
- crystalline form recovered (XRD) ([2]; tetrahydrofuran (THF)): to crystalline form 3
- HPLC Purity % ([5]; 0 day (starting sample)): 99.28%
- HPLC Maximum single impurity % ([5]; 0 day (starting sample)): 0.58 (4.73) %
- crystalline form and melting point by XRD and DSC [5]: substantially unchanged
- HPLC Purity % ([5]; sealed, 80° C./24 h): 98.70%
- HPLC Maximum single impurity % ([5]; sealed, 80° C./24 h): 1.19 (4.73) %
- concentration (solubility in water) ([8]; 0.5 hours): 0.52 µg/mL
- concentration (solubility in water) ([8]; 4 hours): 0.61 µg/mL
SMILES: Cc1[nH]c(/C=C2\C(=O)Nc3ccc(F)cc32)c(C)c1C(=O)N[C@H]1CCN(C(=O)N(C)C)C1 [crystalline form 7, 5-[5-fluoro-2-oxo-1,2-dihydro-indole-(3Z)-ylidenemethyl]-2,4-dimethyl-1H-pyrrole-3-carboxylic acid ((S)-1-dimethylcarbamoyl-pyrrolidin-3-yl)-amide]
